Assay results as given in KR20130112248A, “피라졸로피리미딘 유도체 화합물, 이를 포함하는 산화질소 생성 억제용 조성물 및 뇌신경 질환 예방 및 치료용 약학적 조성물” (한국과학기술연구원, priority 2012, dated 2013).

Tested on: NO production in BV-2 cells [NO 생성; BV-2 세포]
Assay: Nitric oxide (NO) quantification (nitrite, Griess reaction) in LPS-activated BV-2 cells
Type: cell-based
Settings: LPS 0.2 ㎍/mL, 24 h co-treatment; for activity at 20 µM / NO (% of LPS) / activity at 30 µM: nitrite by Griess at 540 nm; for activity at 20 µM / NO (% of LPS): 20 μM

Row | Compound | activity at 20 µM (Mus musculus, BV-2, 24 h) | other results
1 | COc1ccccc1CNc1nc(SC)nc2[nH]ncc12 [6v, 4-(2-메톡시벤질)아미노-6-(메틸티오)피라졸로[3,4-d]피리미딘] | 36 ± 7% | 
2 | CSc1nc(NCc2ccccc2)c2cnn(CCO)c2n1 [화합물 27a, 1-(1-하이드록시에틸)-4-벤질아미노-6-(메틸티오)피라졸로[3,4-d]피리미딘] | 77 ± 5% | 
3 | N-벤질-1-메틸-6-(메틸티오)피라졸로[3,4-d]피리미딘-4-아민 [화합물 12n] |  | NO (% of LPS): 51±1 % of LPS
4 | COc1cccc(CCn2ncc3c(NCc4ccccc4OC)nc([S+](C)[O-])nc32)c1 (centres unmarked) [화합물 22l, N-(2-메톡시벤질)-1-(3-메톡시펜에틸)-6-(메틸설파이닐)-1H-피라졸로[3,4-d]피리미딘-4-아민] | 60 ± 3.3% | 
5 | CSc1nc(NCc2ccccc2Cl)c2cnn(CCNC(=O)OC(C)(C)C)c2n1 [화합물 14l, 2-(4-(2-클로로벤질아미노)-6-(메틸티오)-1H-피라졸로[3,4-d]피리미딘-1-일)에틸카바메이트] | 24.2 ± 1.7% | 
6 | COc1cccc(CNc2nc(SC)nc3c2cnn3CCc2ccccc2OC)c1 [화합물 19a, 1-(2-메톡시펜에틸)-N-(3-메톡시벤질)-6-(메틸티오)-1H-피라졸로[3,4-d]피리미딘-4-아민] | 32 ± 1.1% | 
7 | COc1ccccc1CNc1nc(S(C)(=O)=O)nc2c1cnn2-c1ccc(F)cc1 [화합물 23i, N-(2-메톡시벤질)-1-(4-플루오로페닐)-6-(메틸설포닐)-1H-피라졸로[3,4-d]피리미딘-4-아민] | 35 ± 7.3% | 
8 | COc1ccc(CNc2nc(SC)nc3c2cnn3CCc2ccccc2OC)cc1 [화합물 19b, 1-(2-메톡시펜에틸)-N-(4-메톡시벤질)-6-(메틸티오)-1H-피라졸로[3,4-d]피리미딘-4-아민] | 27 ± 6.8% | 
9 | COc1cccc(CNc2nc(SC)nc3c2cnn3-c2ccccc2)c1 [화합물 15l, 1-페닐-4-(3-메톡시벤질)아미노-6-(메틸티오)피라졸로[3,4-d]피리미딘] | 50 ± 9% | 
10 | CSc1nc(Cl)c2cn[nH]c2n1 [compound 4, 4-클로로-6-(메틸티오)피라졸로[3,4-d]피리미딘] |  | activity at 30 µM (Mus musculus, BV-2, 24 h): 19 ± 4.1%
11 | CC(Nc1nc(S(C)(=O)=O)nc2c1cnn2Cc1ccccc1)c1ccccc1 (single isomer, unassigned) [화합물 23r, 1-벤질-6-(메틸설포닐)-N-(1-페닐에틸)-1H-피라졸로[3,4-d]피리미딘-4-아민] |  | NO (% of LPS) (1440 min): 87±7.1 % of LPS
12 | CSc1nc(NCc2ccc(Cl)cc2)c2cn[nH]c2n1 [6p, 4-(4-클로로벤질)아미노-6-(메틸티오)피라졸로[3,4-d]피리미딘] | 50 ± 23% | 
13 | CSc1nc(NCc2ccccc2C)c2cnn(-c3ccc(C)cc3)c2n1 [화합물 21c, N-(2-메틸벤질)-6-(메틸티오)-1-p-톨릴-1H-피라졸로[3,4-d]피리미딘-4-아민] | 47 ± 6.8% | 
14 | COc1cccc(CNc2nc(SC)nc3c2cnn3Cc2ccccc2)c1 [화합물 16zf, N-(3-메톡시벤질)-1-벤질-6-(메틸티오)-1H-피라졸로[3,4-d]피리미딘-4-아민] | 49 ± 0.6% | 
15 | CSc1nc(NC(C)(C)CO)c2cnn(-c3ccccc3)c2n1 [화합물 15k, 1-페닐-4-[(1-하이드록시-2,2-다이메틸)에틸]아미노-6-(메틸티오)피라졸로[3,4-d]피리미딘] | 70 ± 3% | 
16 | C=CCn1ncc2c(NCc3ccccc3)nc(SC)nc21 [화합물 13a, 1-알릴-4-벤질아미노-6-(메틸티오)피라졸로[3,4-d]피리미딘] | 15 ± 25% | 
17 | CSc1nc(Sc2ccc(C)cc2)c2cnn(-c3ccccc3)c2n1 [화합물 15y, 4-(p-톨릴티오)-6-(메틸티오)-1-페닐-1H-피라졸로[3,4-d]피리미딘] | 85 ± 2.3% | 
18 | CSc1nc(NCCc2ccccc2)c2c(-c3ccccc3)nn(-c3ccccc3)c2n1 [화합물 31e, 1-페닐-3-페닐-4-(2-페닐에틸)아미노-6-(메틸티오)피라졸로[3,4-d]피리미딘] | 105 ± 10% | 
19 | COc1ccc(CNc2nc(S(C)(=O)=O)nc3c2cnn3CCc2ccccc2OC)cc1 [화합물 23za, 1-(2-메톡시펜에틸)-N-(4-메톡시벤질)-6-(메틸설포닐)-1H-피라졸로[3,4-d]피리미딘-4-아민] | 56 ± 3.6% | 

Row | Compound | activity at 20 µM (Mus musculus, BV-2, 24 h) | other results
20 | COc1ccccc1CCn1ncc2c(Cl)nc(SC)nc21 [5k, 1-(2-메톡시펜에틸)-4-클로로-6-(메틸티오)-1H-피라졸로[3,4-d]피리미딘] | 5 ± 62.9% | 
21 | CSc1ncc2cnn(-c3ccccc3)c2n1 [7b, 1-페닐-6-(메틸티오)피라졸로[3,4-d]피리미딘] | 78 ± 4% | 
22 | COc1ccc([C@H](C)Nc2nc(S(C)(=O)=O)nc3c2cnn3-c2ccccc2)cc1 [화합물 23h, N-((S)-1-(4-메톡시페닐)에틸)-6-(메틸설포닐)-1-페닐-1H-피라졸로[3,4-d]피리미딘-4-아민] | 41 ± 5.7% | 
23 | CSc1nc(N[C@H](C)c2ccccc2)c2cnn(-c3ccccc3)c2n1 [화합물 15h, (R)-1-페닐-4-(1-페닐에틸)아미노-6-(메틸티오)피라졸로[3,4-d]피리미딘] | 29 ± 4.6% | 
24 | C=CCn1ncc2c(NCc3ccc(OC)cc3)nc(SC)nc21 [화합물 13m, N-(4-메톡시벤질)-1-알릴-6-(메틸티오)-1H-피라졸로[3,4-d]피리미딘-4-아민] | 8.6 ± 2.7% | 
25 | C=CCn1ncc2c(NCc3ccccc3C)nc(SC)nc21 [화합물 13h, N-(2-메틸벤질)-1-알릴-6-(메틸티오)-1H-피라졸로[3,4-d]피리미딘-4-아민] | 25 ± 0.3% | 
26 | N-(2-메톡시벤질)-6-(메틸설파이닐)-1-페닐-1H-피라졸로[3,4-d]피리미딘-4-아민 [화합물 22c] |  | NO (% of LPS): 55±4 % of LPS
27 | C=CCn1ncc2c(NCc3ccccc3OC)nc(SC)nc21 [화합물 13e, N-(2-메톡시벤질)-1-알릴-6-(메틸티오)-1H-피라졸로[3,4-d]피리미딘-4-아민] | 22.4 ± 0.4% | 
28 | CSc1nc(Cl)c2c(-c3ccccc3)nn(C(C)(C)C)c2n1 [화합물 30c, 1-t-뷰틸-3-페닐-4-클로로-6-(메틸티오)피라졸로[3,4-d]피리미딘] | 21 ± 22% | 
29 | CC(Nc1nc([S+](C)[O-])nc2c1cnn2Cc1ccccc1)c1ccccc1 (centres unmarked) [화합물 22h, 1-벤질-6-(메틸설파이닐)-N-(1-페닐에틸)-1H-피라졸로[3,4-d]피리미딘-4-아민] |  | NO (% of LPS) (1440 min): 59±1.4 % of LPS
30 | CSc1nc(NCc2ccccn2)c2cnn(-c3ccccc3)c2n1 [화합물 15j, 1-페닐-4-[(피리딘-2-일)메틸]아미노-6-(메틸티오)피라졸로[3,4-d]피리미딘] | 30 ± 14% | 
31 | COc1ccccc1CNc1nc(SC)nc2c1cnn2-c1ccc(C)cc1 [화합물 21b, N-(2-메톡시벤질)-6-(메틸티오)-1-p-톨릴-1H-피라졸로[3,4-d]피리미딘-4-아민] | 44 ± 25.2% | 
32 | CC(Nc1nc(NCCCO)nc2c1cnn2Cc1ccccc1)c1ccccc1 (centres unmarked) [화합물 24b, 3-(4-(1-페닐에틸아미노)-1-벤질-1H-피라졸로[3,4-d]피리미딘-6-일아미노)프로판-1-올] | 137 ± 5.7% | 
33 | COc1nc(SC)nc2[nH]ncc12 [10a, 4-메톡시-6-(메틸티오)피라졸로[3,4-d]피리미딘] |  | activity at 30 µM (Mus musculus, BV-2, 24 h): 91 ± 2.4%
34 | CSc1nc(NC(C)c2ccccc2)c2cnn(Cc3ccccc3)c2n1 (centres unmarked) [화합물 16x, 1-벤질-6-(메틸티오)-N-(1-페닐에틸)-1H-피라졸로[3,4-d]피리미딘-4-아민] | 34 ± 1.4% | 
35 | CSc1nc(NC(C)(C)CO)c2cn[nH]c2n1 [6l, 4-(2-하이드록시-1-다이메틸에틸)아미노-6-(메틸티오)피라졸로[3,4-d]피리미딘] | 125 ± 14% | 
36 | COc1ccccc1CCn1ncc2c(NCc3ccccc3Cl)nc(SC)nc21 [화합물 19h, N-(2-클로로벤질)-1-(2-메톡시펜에틸)-6-(메틸티오)-1H-피라졸로[3,4-d]피리미딘-4-아민] | 18 ± 1.2% | 
37 | 1-(2-메톡시펜에틸)-N-(4-메톡시벤질)-6-(메틸설포닐)-1H-피라졸로[3,4-d]피리미딘-4-아민 [화합물 23zb] |  | NO (% of LPS): 49±2.9 % of LPS
38 | CSc1nc(NCc2ccccc2)c2cn[nH]c2n1 [6a, 4-벤질아미노-6-(메틸티오)피라졸로[3,4-d]피리미딘] |  | activity at 50 µM (Mus musculus, BV-2, 24 h, 50 μM (printed in cell of the 30 μM column)): 35 ± 4%

Row | Compound | activity at 20 µM (Mus musculus, BV-2, 24 h) | other results
39 | COc1nc(SC)nc2c1cnn2-c1ccccc1 [화합물 15s, 1-페닐-4-메톡시-6-(메틸티오)피라졸로[3,4-d]피리미딘] | 93 ± 2% | 
40 | CS(=O)(=O)c1nc(NCc2ccccc2Cl)c2cnn(-c3ccccc3)c2n1 [화합물 23b, N-(2-클로로벤질)-6-(메틸설포닐)-1-페닐-1H-피라졸로[3,4-d]피리미딘-4-아민] | 93 ± 2% | 
41 | COc1ccc(CNc2nc(SC)nc3c2cnn3C)cc1 [12h, 1-메틸-4-(4-메톡시벤질)아미노-6-(메틸티오)피라졸로[3,4-d]피리미딘] | 33 ± 10% | 
42 | C=CCNc1nc(SC)nc2c1cnn2CC=C [화합물 13b, 1-알릴-4-알릴아미노-6-(메틸티오)피라졸로[3,4-d]피리미딘] | 86 ± 9% | 
43 | CCSc1nc(SC)nc2c1cnn2Cc1ccccc1 [화합물 16l, 1-벤질-4-(에틸티오)-6-(메틸티오)-1H-피라졸로[3,4-d]피리미딘] | 48 ± 5.1% | 
44 | COc1ccccc1CNc1nc(S(C)(=O)=O)nc2c1cnn2-c1ccc(C)cc1 [화합물 23m, N-(2-메톡시벤질)-6-(메틸설포닐)-1-p-톨릴-1H-피라졸로[3,4-d]피리미딘-4-아민] | 35 ± 3.3% | 
45 | CC(Nc1nc(NCCCCO)nc2c1cnn2Cc1ccccc1)c1ccccc1 (centres unmarked) [화합물 24c, 4-(4-(1-페닐에틸아미노)-1-벤질-1H-피라졸로[3,4-d]피리미딘-6-일아미노)부탄-1-올] | 123 ± 5.4% | 
46 | CSc1nc2c(cnn2C(C)(C)C)c(=S)[nH]1 [9d, 1-t-뷰틸-6-(메틸티오)피라졸로[3,4-d]피리미딘-4-티온] | 108 ± 5% | 
47 | CSc1nc(NCc2ccccc2)c2c(I)n[nH]c2n1 [11a, 3-아이오도-4-벤질아미노-6-(메틸티오)피라졸로[3,4-d]피리미딘] |  | activity at 30 µM (Mus musculus, BV-2, 24 h): 27 ± 11%
48 | C=CCNc1nc(SC)nc2c1c(-c1ccccc1)nn2Cc1ccccc1 [32d, 1-벤질-3-페닐-4-알릴아미노-6-(메틸티오)피라졸로[3,4-d]피리미딘] | 46 ± 2% | 
49 | COc1ccc([C@H](C)Nc2nc(SC)nc3c2cnn3-c2ccc(C)cc2)cc1 [화합물 21j, N-((S)-1-(4-메톡시페닐)에틸)-6-(메틸티오)-1-p-톨릴-1H-피라졸로[3,4-d]피리미딘-4-아민] | 52 ± 1.7% | 
50 | CSc1nc(NCc2ccccn2)c2cn[nH]c2n1 [6h, 4-(피리딘-2-일)메틸아미노-6-(메틸티오)피라졸로[3,4-d]피리미딘] |  | NO (% of LPS) (1440 min): 97±5 % of LPS
51 | Cc1ccc(-n2ncc3c(NCc4ccccc4C)nc(S(C)(=O)=O)nc32)cc1 [화합물 23n, N-(2-메틸벤질)-1-(4-메틸페닐)-6-(메틸설포닐)-1-p-톨릴-1H-피라졸로[3,4-d]피리미딘-4-아민] | 82 ± 3.1% | 
52 | CSc1nc(NCCCn2ccnc2)c2cn[nH]c2n1 [6m, 4-(3-이미다졸-1-일)프로판아미노-6-(메틸티오)피라졸로[3,4-d]피리미딘] | 97 ± 6% | 
53 | C=CCNc1nc(SC)nc2c1c(-c1ccccc1)nn2-c1ccccc1 [화합물 31g, 1-페닐-3-페닐-4-알릴아미노-6-(메틸티오)피라졸로[3,4-d]피리미딘] | 71 ± 3% | 
54 | N-(2-메톡시벤질)-6-(메틸설포닐)-1-페닐-1H-피라졸로[3,4-d]피리미딘-4-아민 [화합물 23d] |  | NO (% of LPS): 35±7.4 % of LPS
55 | CC(Nc1nc(S(C)(=O)=O)nc2c1cnn2Cc1ccccc1)c1ccccc1 (single isomer, unassigned) [화합물 23q, 1-벤질-6-(메틸설포닐)-N-(1-페닐에틸)-1H-피라졸로[3,4-d]피리미딘-4-아민] |  | NO (% of LPS) (1440 min): 122±2.8 % of LPS
56 | CSc1nc(NCc2ccc(F)cc2)c2c(-c3ccccc3)nn(-c3ccccc3)c2n1 [화합물 31c, 1-페닐-3-페닐-4-(4-플루오로벤질)아미노-6-(메틸티오)피라졸로[3,4-d]피리미딘] | 100 ± 4% | 
